The source of these data is paper PMC10253577, “Conformationally Restricted Glycoconjugates Derived from Arylsulfonamides and Coumarins: New Families of Tumour-Associated Carbonic Anhydrase Inhibitors” (International Journal of Molecular Sciences, 2023).

Data set [1] has as its target hCA IV (Homo sapiens, UniProt P22748). Briefly: stopped-flow CO2 hydration assay, hCA IV. The settings on record: mean from three assays, errors ±5–10%.
Description: (§3) The panel of CA-directed compounds prepared herein were assessed in vitro against a series of isoforms of human CA with relevant therapeutic interest.
(§4) The choice of such isoforms will provide information about selectivity against tumour-associated CA IX and XII compared to other relevant CAs.
(§5) The inhibitory properties of title compounds against CAs were determined using the stopped-flow CO2 hydrase assay, as previously reported [46].
In data set [2] the target is hCA XII (Homo sapiens, UniProt O43570). Briefly: stopped-flow CO2 hydration assay, hCA XII. The settings on record: for S.I. I/XII: Ki (CA I)/Ki (CA XII); for S.I. II/XII: Ki (CA II)/Ki (CA XII).
Description: as §3, §4, §5
Data set [3] concerns the target T1, hCA IX (Homo sapiens, UniProt Q16790). Briefly: stopped-flow CO2 hydration assay, hCA IX. The settings on record: for S.I. I/IX: Ki (CA I)/Ki (CA IX); for S.I. II/IX: Ki (CA II)/Ki (CA IX).
Description: as §3, §4, §5
For data set [4], the system named is A549 (Lung, Non-Small). Briefly: antiproliferative assay (NCI protocol), A549. The note with it: Homo sapiens, drug-sensitive cell line, mean ± SD. The class given is cell-based. The source says: (§1) The compounds prepared herein were subjected to in vitro testing as potential antiproliferative agents against a panel of six human solid tumour cell lines, following minor modifications of the protocol from the US National Cancer Institute (NCI). They can be categorized into two groups: drug-sensitive cell lines (A549, HBL-100, HeLa, SW1573) and multidrug resistant cell lines (T-47D, WiDr). […] Ph-derived thiourea 21e and imidazolidine-2-thione 24f were not included in the study.
(§2) Minor modifications of the US National Cancer Institute (NCI) protocol were used.

The test system of data set [5] is HBL-100 (Breast). Briefly: antiproliferative assay (NCI protocol), HBL-100. It is filed as cell-based. The note with it: Homo sapiens, drug-sensitive cell line, mean ± SD.
Description: as §1, §2

The test system of data set [6] is HeLa (Cervix). Briefly: antiproliferative assay (NCI protocol), HeLa. It is filed as cell-based. The note with it: Homo sapiens, drug-sensitive cell line, mean ± SD.
Description: as §1, §2

Data set [7] has as its system WiDr (Colon). Briefly: antiproliferative assay (NCI protocol), WiDr. It is filed as cell-based. The note with it: Homo sapiens, multidrug-resistant cell line, mean ± SD.
Description: as §1, §2

Data set [8] deals with SW1573 (Lung, Non-Small). Briefly: antiproliferative assay (NCI protocol), SW1573. The class given is cell-based. The note with it: Homo sapiens, drug-sensitive cell line, mean ± SD.
Description: as §1, §2

The test system of data set [9] is T-47D (Breast). Briefly: antiproliferative assay (NCI protocol), T-47D. It is filed as cell-based. The note with it: Homo sapiens, T47D; multidrug-resistant cell line, mean ± SD.
Description: as §1, §2

Data set [10] addresses T1, hCA IX. Also on record: made in house. The note with it: previously reported thioureas; cited from earlier work.
Data set [11] concerns panel of six human solid tumour cell lines (A549, HBL-100, HeLa, SW1573, T-47D, WiDr). Briefly: antiproliferative assay (NCI protocol), whole panel. It is filed as cell-based.
Description: as §1, §2

The target in data set [12] is hCA I (Homo sapiens, UniProt P00915). Briefly: stopped-flow CO2 hydration assay, hCA I.
Description: as §3, §4, §5
For data set [13], the target named is hCA II (Homo sapiens, UniProt P00918). Briefly: stopped-flow CO2 hydration assay, hCA II.
Description: as §3, §4, §5

Where two headings read alike, the source gives them in different places.

Sequence of hCA IV (P22748 19-312): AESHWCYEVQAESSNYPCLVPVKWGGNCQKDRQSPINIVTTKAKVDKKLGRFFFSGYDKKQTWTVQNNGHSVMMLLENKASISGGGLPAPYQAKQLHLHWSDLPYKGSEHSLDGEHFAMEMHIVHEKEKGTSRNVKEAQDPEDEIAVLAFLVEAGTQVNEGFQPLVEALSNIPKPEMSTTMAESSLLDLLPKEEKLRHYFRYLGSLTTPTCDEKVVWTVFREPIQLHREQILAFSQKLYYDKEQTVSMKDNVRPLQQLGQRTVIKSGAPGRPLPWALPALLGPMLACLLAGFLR
Sequence of hCA XII (O43570 25-354): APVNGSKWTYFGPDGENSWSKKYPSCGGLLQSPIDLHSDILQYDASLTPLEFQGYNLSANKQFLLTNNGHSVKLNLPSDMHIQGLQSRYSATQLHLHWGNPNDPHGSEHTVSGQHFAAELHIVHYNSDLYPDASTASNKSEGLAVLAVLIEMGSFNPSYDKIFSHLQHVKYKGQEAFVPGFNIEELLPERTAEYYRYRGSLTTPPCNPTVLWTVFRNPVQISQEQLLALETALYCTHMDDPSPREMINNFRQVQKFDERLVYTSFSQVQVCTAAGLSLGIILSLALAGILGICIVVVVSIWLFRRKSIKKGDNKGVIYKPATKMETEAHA
Sequence of hCA I (P00915 whole entry): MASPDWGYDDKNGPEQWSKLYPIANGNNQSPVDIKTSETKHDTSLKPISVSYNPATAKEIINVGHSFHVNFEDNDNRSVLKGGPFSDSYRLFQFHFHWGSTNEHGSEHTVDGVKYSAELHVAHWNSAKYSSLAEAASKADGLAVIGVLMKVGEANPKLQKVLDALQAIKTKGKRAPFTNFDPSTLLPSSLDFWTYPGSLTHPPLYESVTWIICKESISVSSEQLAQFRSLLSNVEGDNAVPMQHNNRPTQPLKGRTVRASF

As to `NS(=O)(=O)c1ccc(N2C(=S)NC3C(O)C(C(O)CO)OC32)cc1` [Compound 9a, 1-(4′-Sulfonamidophenyl)-(1″,2″-dideoxy-α-D-galactofurano)[2,1-d]imidazolidine-2-thione], affinity in data set [1] was put at a Ki of 4.57 µM.

Turning to `NS(=O)(=O)c1ccc(CCN2C(=S)NC3C(O)C(C(O)CO)OC32)cc1` [Compound 8c, 1-[2′-(4″-Sulfonamidophenyl)]ethyl-(1‴,2‴-dideoxy-α-D-glucofurano)[2,1-d]imidazolidine-2-thione], the inhibition constant (Ki) in data set [1] was determined as 1.05 µM.

Regarding `NS(=O)(=O)c1ccc(CCNC(=S)N[C@@H]2O[C@H](CO)[C@@H](O)[C@H](O)[C@H]2O)cc1` [Compound 1c], in data set [2], the “S.I. I/XII” value turned out to be 0.9 and the “S.I. II/XII” value is recorded as 11.1. Moreover, in data set [3], the “S.I. I/IX” value turned out to be 1.0 and the “S.I. II/IX” value is on record as 12.4.

With `CO[C@H]1O[C@H](CO)[C@@H](O)[C@H](O)[C@H]1NC(=S)Nc1ccc2c(C)cc(=O)oc2c1` [Compound C00016], the GI50 was 79 ± 36 µM in [4]; 86 ± 25 µM in data set [5]; 83 ± 30 µM in [6]; > 100 µM in [7]; 79 ± 37 µM in [8]; > 100 µM in data set [9].

In the case of `NS(=O)(=O)c1ccc(CCNC(=S)N[C@@H]2O[C@H](CO)[C@H](O)[C@H](O)[C@H]2O)cc1` [Compound 2c], in [2], the “S.I. I/XII” value is 568 and the “S.I. II/XII” value turned out to be 0.9. In data set [3], the “S.I. I/IX” value amounted to 2067.9 and the “S.I. II/IX” value is 3.3.

Take `NS(=O)(=O)c1ccc(NC(=S)NC2C(O)OC(CO)C(O)C2O)cc1` (stereo not shown) [Compound 3a]: the Ki in data set [10] was 0.077 µM. Also, in [3], the “S.I. I/IX” value is 35.1 and the “S.I. II/IX” value was determined as 126.

For `O=c1cc(-c2ccccc2)c2ccc(OCCCCCCN3C(=S)N[C@@H]4[C@@H](O)[C@@H]([C@H](O)CO)O[C@@H]43)cc2o1` [Compound 24f, 1-{6′-[7″-(4″-Phenyl-2″-oxo-2″H-chromen-7″-yl)oxy]hexyl}-(1‴,2‴-dideoxy-α-D-glucofurano)[2,1-d]imidazolidine-2-thione], in [11] (maximum concentration tested 100 µM, read-out: GI50, all tested cell lines), the GI50 is > 100 µM.

For the compound `NS(=O)(=O)c1cccc(NC(=S)NC2C(O)OC(CO)C(O)C2O)c1` (stereo not shown) [Compound 3b], the Ki in data set [10] is 0.009 µM.

For the compound `NS(=O)(=O)c1ccc(NC(=S)N[C@@H]2O[C@H](CO)[C@@H](O)[C@H](O)[C@H]2O)cc1` [Compound 1a], in data set [2], the “S.I. I/XII” value came out at 937 and the “S.I. II/XII” value was determined as 0.9. In data set [3], the “S.I. I/IX” value was determined as 27.2 and the “S.I. II/IX” value is 0.02.

For `NS(=O)(=O)c1cccc(NC(=S)N[C@H]2C(O)O[C@H](CO)[C@H](O)[C@@H]2O)c1` (stereo partly shown) [Compound 4b], in [10], the Ki is 0.042 µM. For the same compound, in data set [3], the “S.I. I/IX” value amounted to 102.4 and the “S.I. II/IX” value came out at 22.4.

In [1], `NS(=O)(=O)c1ccc(N2C(=S)NC3C(O)C(C(O)CO)OC32)cc1` [Compound 8a, 1-(4′-Sulfonamidophenyl)-(1″,2″-dideoxy-α-D-glucofurano)[2,1-d]imidazolidine-2-thione] yielded a Ki of 0.348 µM.

Take `Cc1cc(=O)oc2cc(OCCCCCCN3C(=S)N[C@@H]4[C@@H](O)[C@@H]([C@H](O)CO)O[C@@H]43)ccc12` [Compound 24c, 1-{6′-[7″-(4″-Methyl-2″-oxo-2″H-chromen-7″-yl)oxy]hexyl}-(1‴,2‴-dideoxy-α-D-glucofurano)[2,1-d]imidazolidine-2-thione]: the inhibition constant Ki in data set [12] and in [13] was > 100 µM each time.

In data set [1], `NS(=O)(=O)c1cccc(N2C(=S)NC3C(O)C(C(O)CO)OC32)c1` [Compound 9b, 1-(3′-Sulfonamidophenyl)-(1″,2″-dideoxy-α-D-galactofurano)[2,1-d]imidazolidine-2-thione] had a Ki of 27.3 µM.

`NS(=O)(=O)c1cccc(N2C(=S)NC3C(O)C(C(O)CO)OC32)c1` [Compound 8b, 1-(3′-Sulfonamidophenyl)-(1″,2″-dideoxy-α-D-glucofurano)[2,1-d]imidazolidine-2-thione] displayed a Ki in data set [1] of 0.0451 µM.

For `NS(=O)(=O)c1ccc(NC(=S)N[C@H]2C(O)O[C@H](CO)[C@H](O)[C@@H]2O)cc1` (stereo partly shown) [Compound 4a], the Ki in data set [10] is 0.074 µM. For the same compound, in [3], the “S.I. I/IX” value amounted to 48.6 and the “S.I. II/IX” value was found to be 104.

The compound `CO[C@H]1O[C@H](CO)[C@@H](O)[C@H](O)[C@H]1NC(=S)NCCCCCCOc1ccc2c(-c3ccccc3)cc(=O)oc2c1` [Compound 21f, N′-(Methyl 2-deoxy-α-D-glucopyranosid-2-yl)-N′-{6′-[7″-(4″-phenyl-2″-oxo-2″H-chromen-7″-yl)oxy]hexyl}thiourea] gave a melting point of 148 °C. In addition, in data set [12], the Ki was > 100 µM. Moreover, the Ki in data set [13] turned out to be 17.3 µM. For the same compound, the GI50 in [4] worked out at 34 ± 4 µM. Besides, in [11] (the five cell lines other than SW1573, read-out: GI50, other five lines), the GI50 was in the range of 23 to 36 µM. In data set [5], this compound registered a GI50 of 23 ± 3.2 µM. Moreover, in data set [2], affinity was put at a Ki of 0.164 µM, the “S.I. I/XII” value is on record as >610 and the “S.I. II/XII” value worked out at 106. The compound also came in with a GI50 in data set [6] of 25 ± 8 µM. In data set [7], this compound registered a GI50 of 36 ± 16 µM. This compound also had a GI50 in data set [8] of 9.7 µM. In data set [9], this compound had a GI50 of 30 ± 7.4 µM. Further, in data set [3], affinity was put at a Ki of 0.116 µM, the “S.I. I/IX” value was >858 and the “S.I. II/IX” value was determined as 148.

Turning to `O=c1cc(-c2ccccc2)c2ccc(OCCCCN3C(=S)N[C@@H]4[C@@H](O)[C@@H]([C@H](O)CO)O[C@@H]43)cc2o1` [Compound 24e, 1-{4′-[7″-(4″-Phenyl-2″-oxo-2″H-chromen-7″-yl)oxy]butyl}-(1‴,2‴-dideoxy-α-D-glucofurano)[2,1-d]imidazolidine-2-thione], the GI50 in [4] stood at 64 ± 31 µM; in data set [5], 23 ± 0.8 µM; in [6], 31 ± 0.2 µM; in data set [7], 47 ± 11 µM; in data set [8], 5.7 ± 1.8 µM; in [9], 70 ± 23 µM.

Regarding `NS(=O)(=O)c1ccc(NC(=S)N[C@@H]2O[C@H](CO)[C@H](O)[C@H](O)[C@H]2O)cc1` [Compound 2a], in [2], the “S.I. I/XII” value is 340 and the “S.I. II/XII” value worked out at 11.0. In data set [3], the “S.I. I/IX” value was 977.1 and the “S.I. II/IX” value is reported as 31.7.

On to `CO[C@H]1O[C@H](CO)[C@@H](O)[C@H](O)[C@H]1NC(=S)NCCCCOc1ccc2c(-c3ccccc3)cc(=O)oc2c1` [Compound 21e, N-(Methyl 2-deoxy-α-D-glucopyranosid-2-yl)-N′-{4′-[7″-(4″-phenyl-2″-oxo-2″H-chromen-7″-yl)oxy]butyl}thiourea], for which the melting point was 165 °C. Moreover, the Ki in data set [12] is > 100 µM. Further, the Ki in data set [13] is > 100 µM. Besides, in data set [2], the Ki is 0.228 µM, the “S.I. I/XII” value was >439 and the “S.I. II/XII” value is >439. Further, in [3], the Ki was 0.106 µM, the “S.I. I/IX” value was >945 and the “S.I. II/IX” value is given as >945.

Consider `Cc1cc(=O)oc2cc(OCCCCCCN3C(=S)NC4C(O)C(C(O)CO)OC43)ccc12` [Compound 26, 1-{4′-[7″-(4″-Methyl-2″-oxo-2″H-chromen-7″-yl)oxy]hexyl}-(1‴,2‴-dideoxy-α-D-galactofurano)[2,1-d]imidazolidine-2-thione], for which the Ki in data set [12] and in [13] was > 100 µM throughout.

In general, Ki refers to a measure of affinity in units of concentration, obtained from inhibition or displacement. One may read the GI50 as the concentration that inhibits growth by half. By melting point is commonly meant the temperature, or range, at which the solid turns liquid.
